Source: patent US11320434B2, “Method and apparatus for rapid detection of SARS-CoV-2” (priority 2020, dated 2022)

How the values were obtained:
[1] = molecular target: T1, K9K peptide ([…], SARS-CoV-2 spike protein position 1245 to 1255) (Severe acute respiratory syndrome coronavirus 2, UniProt P0DTC2); format: binding
T1 construct: purchased Innovagen AB

[2] = test system: tetracysteine-containing peptide; conditions: peptide-bound versus free FlAsH-EDT2; cited from earlier work

O=C(O)c1ccccc1-c1c2ccc(=O)c([As]3SCCS3)c-2oc2c([As]3SCCS3)c(O)ccc12 [FlAsH, 2-(4,5-di(1,3,2-dithiarsolan-2-yl)-6-hydroxy-3-oxo-3H-xanthen-9-yl)benzoic acid]
change of fluorescence after heating the mixture [1]: more than doubled
effect of a reducing agent on emitted fluorescence [1]: can be enhanced
emission of K9K-FlAsH versus FlAsH Control [1]: meaningfully greater
emitted fluorescence versus Control at K9K dilutions [1]: meaningful increases over the Control
fluorescence after prior oxidation of K9K cysteine residues by DTNB (Curve 2) [1]: prevents generation of fluorescence
fluorescence after treatment of oxidized K9K with TCEP (Curve 3) [1]: recovery of fluorescence
fluorescence on treatment of peptide K9K with FlAsH (Curve 1) [1]: rapidly generate intense fluorescence emission
fluorescence with TCEP and heating versus without TCEP or heating [1]: nearly six times greater
time at which emission of fluorescence begins [1]: ≤ 15 s
increase in fluorescence upon exchanging the EDTs for a tetracysteine-containing peptide [2]: more than 50,000 times
